# Assay results reported in US20220177520A1, “PEPTIDES INHIBITING ANDROGEN RECEPTOR ACTIVITY, AND COSMETICS COMPOSITION USING SAME” (SUPADELIXIR INC., priority 2019, published 2022).
# How the values were obtained:
# androgen receptor = assay: PSA expression in DHT-treated prostate cancer cells (Western blot); assay type: cell-based; details: LNCaP cells, DHT 20 nM plus AR Pep1 1, 10, 100 μM, 24 hours, versus DHT only; FIG. 1
# Procedure: 1. Prostate cancer cells (LNCaP) were prepared at a density of 5×10^6 cells per well, treated with DHT at a concentration of 20 nM and with AR Pep1 at a concentration of 1, 10, 100 μM respectively, then cultured in an incubator at 37° C. in the presence of 5% CO2 for 24 hours. As a control group, one with no treatment at all and one treated only with DHT were used. The cancer cells were washed with PBS three times, and lysed with 1% NP40 lysis buffer (1% Nonidet P40, 0.1 M NaCl, 0.05 M tris (pH 8.0), 5 mM EDTA) containing […] PMSP (phenylmethylsulfonyl fluoride), 1 μg/ml pepstatin A, 10 μg/ml leupeptin, 1 μg/ml aprotinin and 1 mM Na3VO4.
# 2. The cell lysate was quantified using Bradford assay to prepare a protein sample for electrophoresis.
# Immunoprecipitates were subjected to 12.5% polyacrylamide gel electrophoresis, then the unfolded protein was transferred onto a nitrocellulose membrane, treated with a blocking solution (Tris-buffered saline (TBS) containing 0.05% Tween 20 and 3% bovine serum albumin) for about one hour at room temperature. Then, the membrane was suspended in TBS buffer containing Anti-PSA polyclonal antibody (Santa cruz, CA, USA) for two hours and washed with TBS buffer containing 0.05% Tween 20. […]
# AR and POL II = target: T1, AR and POL II (Homo sapiens, UniProt P10275); assay: Physical binding of AR and POL II in DHT-treated human keratinocytes (in situ PLA); assay type: cell-based; details: HaCaT cells, DHT 20 nM plus AR Pep1 20 nM, 1, 10, 100 μM, 24 hours, versus DHT only; FIG. 2
# T1 construct: Human keratinocytes (HaCaT) were prepared at a density of 4.5×10^4 cells per well, treated with DHT; endogenous in cells; host or cells: HaCaT human keratinocytes
# T1 sequence (P10275 1-920): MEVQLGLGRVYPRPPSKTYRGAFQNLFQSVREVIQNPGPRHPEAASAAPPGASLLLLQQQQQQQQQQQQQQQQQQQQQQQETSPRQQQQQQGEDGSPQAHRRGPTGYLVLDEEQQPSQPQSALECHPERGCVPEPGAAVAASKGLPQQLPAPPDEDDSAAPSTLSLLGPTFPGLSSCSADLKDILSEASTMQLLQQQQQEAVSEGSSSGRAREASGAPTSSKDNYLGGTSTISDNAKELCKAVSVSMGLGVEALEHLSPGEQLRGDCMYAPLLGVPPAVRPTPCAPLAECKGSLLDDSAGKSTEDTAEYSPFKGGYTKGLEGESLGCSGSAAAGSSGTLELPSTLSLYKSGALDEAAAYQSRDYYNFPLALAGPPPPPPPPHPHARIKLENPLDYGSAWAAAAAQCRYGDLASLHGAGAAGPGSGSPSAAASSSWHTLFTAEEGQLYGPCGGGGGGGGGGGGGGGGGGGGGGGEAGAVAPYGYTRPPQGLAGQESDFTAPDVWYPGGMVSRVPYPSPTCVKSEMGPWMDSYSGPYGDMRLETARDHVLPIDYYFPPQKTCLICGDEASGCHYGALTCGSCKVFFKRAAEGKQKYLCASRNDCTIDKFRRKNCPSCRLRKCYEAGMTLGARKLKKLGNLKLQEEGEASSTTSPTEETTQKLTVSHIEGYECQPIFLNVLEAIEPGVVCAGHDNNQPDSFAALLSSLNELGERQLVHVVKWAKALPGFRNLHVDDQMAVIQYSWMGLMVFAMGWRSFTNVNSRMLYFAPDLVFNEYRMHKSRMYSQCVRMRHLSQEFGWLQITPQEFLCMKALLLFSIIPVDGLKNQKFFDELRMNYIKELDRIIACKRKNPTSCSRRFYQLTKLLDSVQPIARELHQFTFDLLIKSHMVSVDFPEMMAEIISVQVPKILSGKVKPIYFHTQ
# Procedure: 1. Human keratinocytes (HaCaT) were prepared at a density of 4.5×10^4 cells per well, treated with DHT at a concentration of 20 nM and with AR Pep1 at a concentration of 20 nM, 1, 10, 100 μM respectively, then cultured in an incubator at 37° C. in the presence of 5% CO2 for 24 hours. As a control, one with no treatment at all and one treated only with DHT were used. The cells in each well were washed with PBS, fixed in 2% formaldehyde for five minutes, and treated with 0.1% TritonX-100 for five minutes to enhance antibody permeability into cells. Then, Anti-AR polyclonal antibody (Santa cruz, USA) and Anti-POL II monoclonal antibody (Santa cruz, USA) were added, PLA probe was applied using In situ PLA kit (Sigma-Aldrich), and steps of hybridization, ligation, amplification, and mounting were performed.
# 2. Luminescence signals (PLA signals) detected from each cell were measured with a confocal laser microscope (Olympus fluoview FW1000; Olympus, Japan), physical interaction between the AR and POL II antibodies was quantified.
substance,measurement,setting,value
Asp-Lys-Phe (DKF; Peptide 1) [AR Pep1],expression of prostate-specific antigen (PSA),androgen receptor,expression of the PSA was reduced
same,physical interaction between the AR and POL II (PLA signals),AR and POL II,the increase in that interaction was reduced
